# According to PubChem BioAssay (NCI):
#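 Grown in 96-well plates, cells were treated for 48 hours with each compound at five concentrations. Insufficient inhibition: endpoint recorded as highest concentration tested. GI50 is the concentration that inhibits growth by half. TGI is the concentration that stops growth completely.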
# Experiments:
# Assay in all cases: DTP human tumour cell line panel, 48 h
# OVCAR-8 ovarian = system: OVCAR-8 ovarian
# NCI-H226 lung = system: NCI-H226 lung
# T-47D breast = system: T-47D breast
# MDA-MB-435 = system: MDA-MB-435
# SF-539 CNS = system: SF-539 CNS
# KM12 colon = system: KM12 colon
# RPMI-8226 leukemia = system: RPMI-8226 leukemia
# 786-0 renal = system: 786-0 renal
# PC-3 prostate = system: PC-3 prostate
# IGROV1 ovarian = system: IGROV1 ovarian
# OVCAR-5 ovarian = system: OVCAR-5 ovarian
# HOP-92 NSCLC = system: HOP-92 NSCLC
# TK-10 renal = system: TK-10 renal
# BT-549 breast = system: BT-549 breast
# SK-MEL-5 melanoma = system: SK-MEL-5 melanoma
# MOLT-4 leukemia = system: MOLT-4 leukemia
# HCT-116 colon = system: HCT-116 colon
# A498 renal = system: A498 renal
# K-562 leukemia = system: K-562 leukemia
# A549 NSCLC = system: A549 NSCLC
# RXF 393 renal = system: RXF 393 renal
# OVCAR-4 ovarian = system: OVCAR-4 ovarian
# NCI-H460 lung = system: NCI-H460 lung
# COLO 205 colon = system: COLO 205 colon
# NCI-H23 lung = system: NCI-H23 lung
# LOX IMVI melanoma = system: LOX IMVI melanoma
# MCF7 breast = system: MCF7 breast
# HS 578T breast = system: HS 578T breast
# U251 CNS = system: U251 CNS
# SF-295 CNS = system: SF-295 CNS
# MALME-3M melanoma = system: MALME-3M melanoma
# HT29 colon = system: HT29 colon
# HOP-62 NSCLC = system: HOP-62 NSCLC
# CCRF-CEM leukemia = system: CCRF-CEM leukemia
# CAKI-1 renal = system: CAKI-1 renal
# M14 melanoma = system: M14 melanoma
# ACHN renal = system: ACHN renal
# NCI-H522 lung = system: NCI-H522 lung
# OVCAR-3 ovarian = system: OVCAR-3 ovarian
# HL-60(TB) leukemia = system: HL-60(TB) leukemia
# HCT-15 colon = system: HCT-15 colon
# SK-MEL-2 melanoma = system: SK-MEL-2 melanoma
# UO-31 renal = system: UO-31 renal
# HCC-2998 colon = system: HCC-2998 colon
# EKVX NSCLC = system: EKVX NSCLC
# SW-620 colon = system: SW-620 colon
# MDA-MB-468 breast = system: MDA-MB-468 breast
# MDA-MB-231 breast = system: MDA-MB-231 breast
# SK-MEL-28 melanoma = system: SK-MEL-28 melanoma
# SF-268 CNS = system: SF-268 CNS
# SNB-19 CNS = system: SNB-19 CNS
# UACC-62 melanoma = system: UACC-62 melanoma
# SR leukemia = system: SR leukemia
# UACC-257 melanoma = system: UACC-257 melanoma
# DU-145 prostate = system: DU-145 prostate
# SN12C renal = system: SN12C renal
# SK-OV-3 ovarian = system: SK-OV-3 ovarian
compound,measurement,setting,value
CN(C)c1nc(NCCNS(=O)(=O)c2ccc(C(=O)/C=C/c3ccc(F)cc3)cc2)nc(N2CCOCC2)n1,GI50,OVCAR-8 ovarian,14.7 µM
same,TGI,OVCAR-8 ovarian,28.2 µM
same,GI50,NCI-H226 lung,12.3 µM
same,TGI,NCI-H226 lung,28.2 µM
same,GI50,T-47D breast,11.9 µM
same,TGI,T-47D breast,33.5 µM
same,GI50,MDA-MB-435,11.6 µM
same,TGI,MDA-MB-435,24.6 µM
same,GI50,SF-539 CNS,13.2 µM
same,TGI,SF-539 CNS,25.9 µM
same,GI50,KM12 colon,13.4 µM
same,TGI,KM12 colon,30.6 µM
same,GI50,RPMI-8226 leukemia,1.91 µM
same,TGI,RPMI-8226 leukemia,5.07 µM
same,GI50,786-0 renal,14.5 µM
same,TGI,786-0 renal,28.7 µM
same,GI50,PC-3 prostate,11.2 µM
same,TGI,PC-3 prostate,25.5 µM
same,GI50,IGROV1 ovarian,2.27 µM
same,TGI,IGROV1 ovarian,6.18 µM
same,GI50,OVCAR-5 ovarian,13.6 µM
same,TGI,OVCAR-5 ovarian,26.8 µM
same,GI50,HOP-92 NSCLC,12.7 µM
same,TGI,HOP-92 NSCLC,28.5 µM
same,GI50,TK-10 renal,15.3 µM
same,TGI,TK-10 renal,28.7 µM
same,GI50,BT-549 breast,15.1 µM
same,TGI,BT-549 breast,29.2 µM
same,GI50,SK-MEL-5 melanoma,15.7 µM
same,TGI,SK-MEL-5 melanoma,29.2 µM
same,GI50,MOLT-4 leukemia,4.69 µM
same,TGI,MOLT-4 leukemia,> 100 µM
same,GI50,HCT-116 colon,2.29 µM
same,TGI,HCT-116 colon,5.25 µM
same,GI50,A498 renal,11.9 µM
same,TGI,A498 renal,24.4 µM
same,GI50,K-562 leukemia,3.7 µM
same,TGI,K-562 leukemia,> 100 µM
same,GI50,A549 NSCLC,13.7 µM
same,TGI,A549 NSCLC,27.9 µM
same,GI50,RXF 393 renal,8.82 µM
same,TGI,RXF 393 renal,21.2 µM
same,GI50,OVCAR-4 ovarian,11.9 µM
same,TGI,OVCAR-4 ovarian,24.7 µM
same,GI50,NCI-H460 lung,15.7 µM
same,TGI,NCI-H460 lung,33 µM
same,GI50,COLO 205 colon,14.6 µM
same,TGI,COLO 205 colon,30.2 µM
same,GI50,NCI-H23 lung,14.6 µM
same,TGI,NCI-H23 lung,28.1 µM
same,GI50,LOX IMVI melanoma,1.63 µM
same,TGI,LOX IMVI melanoma,3.17 µM
same,GI50,MCF7 breast,2.99 µM
same,TGI,MCF7 breast,11.2 µM
same,GI50,HS 578T breast,14.6 µM
same,TGI,HS 578T breast,54.6 µM
same,GI50,U251 CNS,4.74 µM
same,TGI,U251 CNS,16.7 µM
same,GI50,SF-295 CNS,11.3 µM
same,TGI,SF-295 CNS,23.8 µM
same,GI50,MALME-3M melanoma,14.6 µM
same,TGI,MALME-3M melanoma,28.2 µM
same,GI50,HT29 colon,2.85 µM
same,TGI,HT29 colon,8.39 µM
same,GI50,HOP-62 NSCLC,16.1 µM
same,TGI,HOP-62 NSCLC,31.5 µM
same,GI50,CCRF-CEM leukemia,6.58 µM
same,TGI,CCRF-CEM leukemia,39.1 µM
same,GI50,CAKI-1 renal,9.5 µM
same,TGI,CAKI-1 renal,21.9 µM
same,GI50,M14 melanoma,15 µM
same,TGI,M14 melanoma,30.5 µM
same,GI50,ACHN renal,13.1 µM
same,TGI,ACHN renal,26 µM
same,GI50,NCI-H522 lung,13.3 µM
same,TGI,NCI-H522 lung,26.6 µM
same,GI50,OVCAR-3 ovarian,14.6 µM
same,TGI,OVCAR-3 ovarian,28.5 µM
same,GI50,HL-60(TB) leukemia,14.7 µM
same,TGI,HL-60(TB) leukemia,> 100 µM
same,GI50,HCT-15 colon,2.15 µM
same,TGI,HCT-15 colon,4.92 µM
same,GI50,SK-MEL-2 melanoma,13.7 µM
same,TGI,SK-MEL-2 melanoma,26.8 µM
same,GI50,UO-31 renal,11 µM
same,TGI,UO-31 renal,23 µM
same,GI50,HCC-2998 colon,16 µM
same,TGI,HCC-2998 colon,29.9 µM
same,GI50,EKVX NSCLC,14.4 µM
same,TGI,EKVX NSCLC,27.8 µM
same,GI50,SW-620 colon,3.39 µM
same,TGI,SW-620 colon,12.3 µM
same,GI50,MDA-MB-468 breast,8.08 µM
same,TGI,MDA-MB-468 breast,22.6 µM
same,GI50,MDA-MB-231 breast,12.3 µM
same,TGI,MDA-MB-231 breast,25.3 µM
same,GI50,SK-MEL-28 melanoma,14.9 µM
same,TGI,SK-MEL-28 melanoma,28.2 µM
same,GI50,SF-268 CNS,15 µM
same,TGI,SF-268 CNS,37.5 µM
same,GI50,SNB-19 CNS,13.4 µM
same,TGI,SNB-19 CNS,26.5 µM
same,GI50,UACC-62 melanoma,10.8 µM
same,TGI,UACC-62 melanoma,23 µM
same,GI50,SR leukemia,3.45 µM
same,TGI,SR leukemia,> 100 µM
same,GI50,UACC-257 melanoma,15.5 µM
same,TGI,UACC-257 melanoma,29.2 µM
same,GI50,DU-145 prostate,14.4 µM
same,TGI,DU-145 prostate,27.8 µM
same,GI50,SN12C renal,12 µM
same,TGI,SN12C renal,24.4 µM
same,GI50,SK-OV-3 ovarian,13.8 µM
same,TGI,SK-OV-3 ovarian,27.6 µM
